The values that follow come from ChEMBL document CHEMBL1201862, “PubChem BioAssay data set” (2004).

Active and inactive are the calls of the source. Cut-off read from the data, not from the text of the source, for most assays here: actives have a measured EC50 and inactives only a lower limit. Residues, ends and D or L forms follow the SMILES beside them. *: point of attachment. Boc = CC(C)(C)OC(=O)*; Bn = c1ccc(C*)cc1

Assay [1] deals with Streptococcus sp. 'group A'. Description: Streptococcus pyogenes SK(-)GAS viability under kanamycin – luminescence, BacTiterGlo, confirmation, counter-screen for streptokinase expression inhibitor project, dose response (AID 1900). The class given is functional, organism-based.
For assay [2], the target named is T1, Streptokinase A (Streptococcus pyogenes serotype M1, UniProt P10520).
T1 sequence (P10520 whole entry): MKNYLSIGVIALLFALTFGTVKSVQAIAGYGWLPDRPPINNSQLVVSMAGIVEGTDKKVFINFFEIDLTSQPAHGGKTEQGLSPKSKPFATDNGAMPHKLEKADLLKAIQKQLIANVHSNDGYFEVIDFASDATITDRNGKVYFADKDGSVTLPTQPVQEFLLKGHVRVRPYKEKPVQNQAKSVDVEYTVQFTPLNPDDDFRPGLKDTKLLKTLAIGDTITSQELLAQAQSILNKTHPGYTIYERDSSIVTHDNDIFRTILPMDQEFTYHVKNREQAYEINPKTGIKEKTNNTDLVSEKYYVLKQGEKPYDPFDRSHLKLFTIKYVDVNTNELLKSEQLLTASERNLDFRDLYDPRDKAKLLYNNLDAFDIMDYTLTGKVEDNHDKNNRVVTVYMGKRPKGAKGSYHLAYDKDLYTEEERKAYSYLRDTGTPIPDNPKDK
Description: viability-normalized secreted streptokinase activity reduction – plasminogen activation absorbance, OD405, dose response (AID 1914).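 Note: secreted streptokinase activity via plasminogen activation per viability signal from cell pellet.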 The class given is functional, Streptococcus pyogenes M1 GAS.

In assay [3] the test system is Streptococcus. Description: GAS UMAA2166 growth inhibition – luminescence, BacTiterGlo, counter-screen for streptokinase expression inhibitor project, dose response (AID 1915).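 Note: potency for reduction of bacterial viability or growth.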 The class given is functional, organism-based. In general terms: A counterscreen serves to expose hits that act by an unwanted route or on another target.
Assay [4] in a line: Luminescence Cell-Based Dose Retest to Confirm Inhibitors of Cancer Stem Cells. [Related pubchem assays (depositor defined):AID2717, AID2721]. The settings on record: Homo sapiens. The class given is functional.
Assay [5] concerns the target T2, RNA-binding protein pos-1 (Caenorhabditis elegans, UniProt G5EF15).
T2 sequence (G5EF15 whole entry): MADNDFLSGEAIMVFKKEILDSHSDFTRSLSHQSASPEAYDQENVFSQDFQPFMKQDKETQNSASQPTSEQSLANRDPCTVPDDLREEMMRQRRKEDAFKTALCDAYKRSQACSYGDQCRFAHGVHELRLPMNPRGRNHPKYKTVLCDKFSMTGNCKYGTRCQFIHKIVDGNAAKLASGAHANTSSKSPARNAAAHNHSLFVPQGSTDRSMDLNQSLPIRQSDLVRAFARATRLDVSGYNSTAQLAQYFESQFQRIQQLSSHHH
In words: disruptors of C. elegans POS-1 RNA interaction – biochemical, fluorescence polarization, dose response (AID 1964).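 Note: purified POS-1 fused to maltose binding protein made in E. coli; potency of compounds blocking POS-1 binding to fluorescent RNA.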

Assay [6] concerns the target T3, Zinc finger protein mex-5 (Caenorhabditis elegans, UniProt Q9XUB2).
T3 sequence (Q9XUB2 whole entry): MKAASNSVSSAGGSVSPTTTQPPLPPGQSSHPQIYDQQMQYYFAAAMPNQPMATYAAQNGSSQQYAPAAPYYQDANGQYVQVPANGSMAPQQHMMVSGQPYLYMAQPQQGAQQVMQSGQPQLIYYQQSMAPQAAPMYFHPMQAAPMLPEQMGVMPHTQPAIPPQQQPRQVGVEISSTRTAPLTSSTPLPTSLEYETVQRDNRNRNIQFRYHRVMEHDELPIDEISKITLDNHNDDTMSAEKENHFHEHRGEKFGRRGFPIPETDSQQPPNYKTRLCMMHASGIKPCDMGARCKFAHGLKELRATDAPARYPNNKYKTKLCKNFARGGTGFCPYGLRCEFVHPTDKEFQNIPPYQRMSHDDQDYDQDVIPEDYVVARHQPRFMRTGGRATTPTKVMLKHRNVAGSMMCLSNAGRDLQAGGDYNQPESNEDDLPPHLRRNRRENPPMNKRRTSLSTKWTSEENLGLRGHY
Description: potency of MEX-5 RNA-binding blockers – biochemical, C. elegans, fluorescence polarization, dose response (AID 1960). In general terms: In fluorescence polarisation assays a small probe gives low polarisation when free and higher when bound to something large.

For assay [7], the system named is H4. Description: Luminescence Cell-Based Dose Response HTS to Identify Activators of 5'UTR Stem-Loop Driven Prion Protein mRNA Translation in H4 Neuroglioblastoma Cells. [Related pubchem assays: 1829 (Project Summary), 1814 (Primary HTS)]. The class given is functional. The settings on record: Homo sapiens.
A short description of assay [8]: NIH-3T3 fibroblast cytotoxicity, dose response, cytotoxicity control, cell-based, fluorescence, Alamar Blue, secondary assay (AID 2327).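 Note: NIH-3T3 mouse fibroblasts cultured with fluconazole at 8 µg/mL.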 The class given is functional. For orientation: The colour change of resazurin is a common sign of viable cells or microbes.
A short description of assay [9]: fluconazole-exposed Candida albicans growth modulators – fluorescence, retest, confirmation (AID 2467). The class given is functional, cell-based.
Assay [10] addresses Cytochrome P450 3A4 (Homo sapiens, UniProt P08684).
The target of assay [11] is Cytochrome P450 2C9 (Homo sapiens, UniProt P11712).
Assay [12] concerns INS1. Description: INS-1E survival protection against cytokine death – cell-based, luminescence, retest, dose response (AID 449756).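 Note: cell death triggered by IL-1 beta plus TNF-alpha plus IFN-gamma mixture; protective hits raise ATP signal compared with cytokine alone wells.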 The class given is functional. The settings on record: Rattus norvegicus.
A short description of assay [13]: Luminescence Cell-Based Dose Response HTS to Identify Activators of Luciferase Translation or Activity in H4 […] Cells. [Related pubchem assays: 1829 (Project Summary), 1814 (Primary HTS)]. The class given is functional.

Chain of Cytochrome P450 3A4 (P08684 whole entry): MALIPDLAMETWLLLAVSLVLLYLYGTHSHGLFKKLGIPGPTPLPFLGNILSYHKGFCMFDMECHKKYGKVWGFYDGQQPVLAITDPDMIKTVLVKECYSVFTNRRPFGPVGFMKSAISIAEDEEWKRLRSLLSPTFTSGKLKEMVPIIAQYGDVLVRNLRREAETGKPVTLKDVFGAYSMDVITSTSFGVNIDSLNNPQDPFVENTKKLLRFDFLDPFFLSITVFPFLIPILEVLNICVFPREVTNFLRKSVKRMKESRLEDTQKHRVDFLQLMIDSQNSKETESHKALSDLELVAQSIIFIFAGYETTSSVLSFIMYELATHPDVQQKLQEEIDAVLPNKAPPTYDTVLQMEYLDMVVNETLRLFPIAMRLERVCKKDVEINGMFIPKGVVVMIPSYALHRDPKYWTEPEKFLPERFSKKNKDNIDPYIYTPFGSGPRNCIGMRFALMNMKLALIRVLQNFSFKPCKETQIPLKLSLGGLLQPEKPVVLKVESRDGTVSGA
Chain of Cytochrome P450 2C9 (P11712 whole entry): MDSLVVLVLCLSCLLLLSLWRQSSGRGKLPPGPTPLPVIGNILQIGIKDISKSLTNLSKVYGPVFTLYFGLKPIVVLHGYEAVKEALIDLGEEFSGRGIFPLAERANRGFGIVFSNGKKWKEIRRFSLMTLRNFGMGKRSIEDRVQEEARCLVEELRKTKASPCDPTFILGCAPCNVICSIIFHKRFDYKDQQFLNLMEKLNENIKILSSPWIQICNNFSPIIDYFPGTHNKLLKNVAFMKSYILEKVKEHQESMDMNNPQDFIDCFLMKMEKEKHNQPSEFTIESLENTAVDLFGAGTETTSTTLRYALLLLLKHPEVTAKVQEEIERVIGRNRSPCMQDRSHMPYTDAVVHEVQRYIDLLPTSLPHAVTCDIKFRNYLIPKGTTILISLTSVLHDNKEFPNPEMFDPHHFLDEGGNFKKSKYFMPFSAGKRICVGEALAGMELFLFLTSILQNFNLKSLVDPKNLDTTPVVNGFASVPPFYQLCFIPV

On to `CC(C)CC(=O)NC(N=C(S)Nc1sc2c(c1C#N)CCCC2)C(Cl)(Cl)Cl` (stereo not given), for which the EC50 (as a rule, the concentration needed to bring the measured effect to its halfway point) in assay [1] is 3.06 µM (active); in assay [2], 3.23 µM (active); in [3], 6.32 µM (active). Besides, in assay [4], the AC50 (usually the midpoint of the concentration-response curve, whichever way the signal moves) is 0.974 µM (active).

Consider `Cc1noc(/C=C/N(C)C)c1S(=O)(=O)N1CCC(C(=O)O)CC1`, for which the EC50 in assay [5] and in [6] was > 300 µM (not active) each time.

On to `Cc1ccccc1/C=C/c1nc(O)c2ccccc2n1`, for which the EC50 in assay [7] was 1.13 µM (active).

As to `CC1(OC(=O)c2ccc(Cl)nc2)C(=O)C=C2C=C(C3CC3)OC=C2C1=O` (stereo not given), the EC50 in [5] was 15.1 µM (active); in assay [6], 14.3 µM (active).

On to `COc1cc(/C=N/Nc2ccc(F)cc2F)cc(OC)c1OC`, for which the EC50 in assay [8] was 20.8 µM (active); in [9] it was > 38 µM (not active).

As to `CSc1nnc(N2C(=O)C(O)=C(C(=O)c3ccco3)C2c2ccccc2)s1` (stereo not given), the EC50 in [5] was > 300 µM (inconclusive); in [6], 76.6 µM (active).

For the molecule `COc1ccc(OC)c(C(=O)CSc2nccc(-c3ccc(Br)cc3)n2)c1`, in [4], the AC50 is 1.33 µM (active).

For `CCCCNc1cc(=O)oc2ccccc12`, the AC50 in assay [10] was 17.8 µM (inconclusive); in assay [11] it was 6.31 µM (inconclusive).

Regarding `COc1ccc(C2C(C#N)=C(N)OC3=C2C(=O)CCC3)cc1OC` (stereo not given), the concentration giving a half-maximal response (EC50) in assay [5] and in assay [6] was > 300 µM (not active) throughout.

For the molecule `CC1=NN(C(N)=S)C(=O)C1N=Nc1c(Cl)cc([N+](=O)[O-])cc1Cl` (stereo not given), the results for the EC50 in [5] and in [6] were > 300 µM (not active) and 85.9 µM (active), respectively.

With `COC(=O)CCCC1=CC2=CC(=O)C(C)(O)C(=O)C2=CO1` (stereo not given), the EC50 in [5] was > 300 µM (not active); in assay [6] it was 29 µM (active).

As to `Cc1ccc(Cn2c(=N)c(C(=O)NCC3CCCO3)cc3c(=O)n4ccccc4nc32)cc1` (stereo not given), the EC50 in assay [5] and in assay [6] was > 300 µM (not active) throughout.

Consider `O=C(CN1C(=O)S/C(=C\c2ccccn2)C1=O)Nc1ccccc1`, for which the values for the EC50 in assay [8] and in assay [9] were 89.4 µM (active) and > 38 µM (not active), respectively.

As to `COc1ccc(-c2cc(C(=O)N3CC4(C)CC3CC(C)(C)C4)no2)cc1` (stereo not given), the half-maximal activity concentration (AC50) in [4] was 0.442 µM (active).

For the molecule `COC(=O)c1ccc(-n2c(C)cc(/C=N/n3cnnc3)c2C)cc1`, the EC50 in assay [5] and in assay [6] was > 300 µM (not active) each time.

In the case of `C=CCNC(=S)Nc1cc(Cl)ccc1OC`, the EC50 in assay [5] and in assay [6] was > 300 µM (not active) throughout.

With `Cc1ccc(C2(C)NC(=O)N(CC(=O)Nc3cc(C)on3)C2=O)cc1` (stereo not given), the AC50 in assay [10] was 25.1 µM (inconclusive); in [11], 14.1 µM (inconclusive).

Regarding `Cc1ccc(NCCC(=O)c2ccc(Cl)cc2)cc1`, the half-maximal activity concentration (AC50) was 12.6 µM (inconclusive) in assay [10] and 3.98 µM (inconclusive) in assay [11].

With `Cc1nn(-c2ccccc2)c(N2CCCC2)c1/C=C1\N=C(c2ccc(F)cc2)OC1=O`, the EC50 in [5] was > 300 µM (inconclusive); in [6] it was 56.7 µM (active).

On to `O=c1c(F)cn(C2CCCO2)c(=O)n1Cc1c(F)cccc1Cl` (stereo not given), for which the EC50 in assay [8] is > 150 µM (inactive); in assay [9], > 38 µM (not active).

For `Cc1ccccc1Oc1nc(-c2ccccn2)nc2ccccc12`, the EC50 in assay [1] is 12.4 µM (active); in assay [2] it was > 150 µM (not active); in assay [3], 18.5 µM (active). In addition, in assay [12], the AC50 was 2.19 µM (active).

As to `COc1ccc(S(=O)(=O)n2ccc(-c3cnc(-c4ccccc4)s3)n2)cc1`, the concentration giving a half-maximal response (EC50) in assay [13] was > 120 µM (not active); in [7], 41.2 µM (active).

Consider `Brc1ccc(CN2CCN(Cc3c[nH]c4ccccc34)CC2)cc1`, for which the half-maximal activity concentration (AC50) in [12] was 6.68 µM (active).

Turning to `CCOC(=O)c1ccc(Oc2nc(NC(C)(C)C)nc(N(C)C)n2)cc1`, the EC50 was > 150 µM (inactive) in assay [8] and > 38 µM (not active) in assay [9].

On to `COc1ccc(Nc2nnc(-c3ccccc3)c3ccccc23)cc1C(=O)N1CCCCC1`, for which, in assay [4], the AC50 was 31.2 µM (active).

For `O=C1Nc2cc(C(=O)N3CCN(c4ccccn4)CC3)ccc2S/C1=C\c1ccccc1`, the EC50 in [1] was 3.55 µM (active); in assay [2], > 150 µM (not active); in assay [3], 18.2 µM (active).

In the case of `O=C(O)c1cc(O)ccc1NC(=O)C(c1ccccc1)c1ccccc1`, in assay [4], the AC50 was > 195 µM (inactive).

Turning to `Cc1cc(Cl)c2oc(C(=O)N3CCC(O)(c4ccccc4)CC3)c(C)c2c1`, the EC50 in assay [1] is 5.13 µM (active); in assay [2], > 150 µM (not active); in [3], 14.8 µM (active).

For the molecule `CCn1cc(C(=O)NCc2ccccn2)c(=O)c2cc(S(=O)(=O)N3CCCCC3)ccc21`, the EC50 in assay [5] is 154 µM (active); in assay [6], 102 µM (active).

For `CCc1ccc(-c2ccc3nnc(SCC(N)=O)n3n2)cc1`, the results for the EC50 in assay [1], in assay [2] and in assay [3] were 1.83 µM (active), > 150 µM (not active) and 18.6 µM (active), respectively.

For the molecule `COc1ccc(OC)c(-c2csc(NC(=O)c3ccc(F)cc3)n2)c1`, the AC50 in [4] was 2.38 µM (active).

With `Oc1c(C(c2ccccn2)N2CCC(Cc3ccccc3)CC2)cc(Cl)c2cccnc12` (stereo not given), the EC50 in [8] was 13.9 µM (inconclusive); in assay [9] it was 1.46 µM (active).

Turning to `COc1cccc(C(=O)NNC(=O)c2ccccc2Br)c1`, the half-maximal effective concentration (EC50) in assay [8] was > 150 µM (inconclusive); in assay [9] it was > 38 µM (not active).

`CC(C)CC(NC(=O)C(NC(=O)C(Cc1ccc(OCc2ccccc2)cc1)NC(=O)OC(C)(C)C)C(C)C)C(N)=O` (stereo not drawn) (Boc-Tyr(Bn)-Val-Leu-NH2; configuration not given here): the AC50 in [4] was 24.4 µM (active).

Regarding `C1=C(c2ccccc2)Nc2nnnn2C1c1cccs1` (stereo not given), the EC50 in [5] and in [6] was > 300 µM (not active) each time.

Take `O=C(NCc1nc(-c2ccc(C(F)(F)F)cc2)no1)Nc1ccc(OC(F)(F)F)cc1`: the half-maximal activity concentration (AC50) in assay [4] was 2.68 µM (active).

Regarding `CCCCc1nc(NCc2ccccc2)c(C#N)c2c1CCCC2`, the figures for the EC50 in assay [1], in [2] and in assay [3] were 9.14 µM (active), 2.96 µM (active) and 19.1 µM (active), respectively.

`Cn1c(SCc2ccccc2)nnc1-c1ccc2c(c1)OCO2`: the concentration giving a half-maximal response (EC50) in assay [13] was 95.9 µM (active); in assay [7], 29.8 µM (inconclusive).

As for `C/C(NCc1ccco1)=C1\C(=O)NC(=O)N(c2ccccc2)C1=O`, the AC50 in [11] is 39.8 µM (inconclusive).

In the case of `c1nc(NCc2ccc3c(c2)OCO3)c2cc(-c3ccc4c(c3)OCCO4)ccc2n1`, the AC50 in assay [12] is 10.4 µM (active).

For the molecule `CS(=O)(=O)Nc1ccc(C2=NN(C(=O)C3CCCCC3)C(c3cccs3)C2)cc1` (stereo not given), the half-maximal effective concentration (EC50) in assay [1] is 4.11 µM (active); in assay [2], > 150 µM (not active); in assay [3], 6.38 µM (active).
